The target of the test is T1, human Werner helicase (WRN-BV08, Uniprot Q14191, amino acids 517-1235 with L1074F point mutation) (Homo sapiens, UniProt Q14191, L1074F).
T1 construct: Uniprot Q14191, amino acids 517-1235 with L1074F point mutation; TEV-cleavable 8×His (C, cleaved yes); made in house; host or cells: Sf9 insect cells (baculovirus)
The experiment in a line: WRN (BV08) ADP-Glo Assay. Conditions: 0.15 nM WRN, 5 μM ATP, 0.1 nM DNA duplex, 15 min preincubation, 60 min at 25° C., pH 7.5, 1% DMSO; read-out: ADP-Glo_hWRN_IC50. Type of test: biochemical. Put shortly:
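WRN 0.15 nM + cpd, 15 min 25 °C; add 5 μM ATP / 0.1 nM annealed DNA duplex; 60 min 25 °C; ADP-Glo stop, RLU. Buffer 20 mM Bicine pH 7.5, 1 mM MgCl2, 10 mM KCl, 1 mM TCEP. IC50, 4-parameter fit.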
A general note: ADP-Glo turns the ADP formed in a reaction into a luminescent signal.

This is an account of results in patent publication US20260297070A1, “CYCLIC [COMPOUND LEFT OUT] WRN INHIBITORS” (Nimbus Wadjet, Inc., priority 2023, published 2026).

Each structure is given as a SMILES string.

T1 sequence (Q14191 with tags, fused parts or gaps L1074F limits assumed): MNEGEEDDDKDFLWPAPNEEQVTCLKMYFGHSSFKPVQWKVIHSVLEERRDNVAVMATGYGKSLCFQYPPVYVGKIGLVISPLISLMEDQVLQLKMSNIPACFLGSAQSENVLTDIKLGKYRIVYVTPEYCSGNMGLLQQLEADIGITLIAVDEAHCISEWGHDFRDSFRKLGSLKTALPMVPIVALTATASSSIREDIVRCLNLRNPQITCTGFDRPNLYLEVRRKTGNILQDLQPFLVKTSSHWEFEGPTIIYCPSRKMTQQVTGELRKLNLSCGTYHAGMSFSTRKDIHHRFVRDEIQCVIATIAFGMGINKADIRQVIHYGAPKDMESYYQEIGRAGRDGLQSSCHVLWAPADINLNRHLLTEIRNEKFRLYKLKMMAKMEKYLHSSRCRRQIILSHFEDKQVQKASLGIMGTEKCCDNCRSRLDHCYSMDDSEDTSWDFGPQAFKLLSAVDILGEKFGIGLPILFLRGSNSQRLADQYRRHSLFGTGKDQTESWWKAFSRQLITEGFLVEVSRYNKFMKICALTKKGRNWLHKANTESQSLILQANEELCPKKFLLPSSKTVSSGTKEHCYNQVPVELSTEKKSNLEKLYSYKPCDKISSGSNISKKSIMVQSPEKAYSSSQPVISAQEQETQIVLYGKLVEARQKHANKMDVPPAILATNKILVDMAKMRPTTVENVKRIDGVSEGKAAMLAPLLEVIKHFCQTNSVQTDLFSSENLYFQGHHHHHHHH

`O=C(Cn1ncc2ccc(C(F)(F)F)cc21)N(Cc1ccncc1)C1C=CS(=O)(=O)C1` (stereo not drawn) [I-455, N-(1,1-dioxo-2,3-dihydro-1lambda6-thiophen-3-yl)-N-[(pyridin-4-yl)methyl]-2-[6-(trifluoromethyl)-1H-indazol-1-yl]acetamide]: the IC50 is greater than 50 µM.

Take `CSC(C(=O)N(Cc1ccnc(C(C)(C)O)c1)C1C=CS(=O)(=O)C1)c1ccc(-c2ccc(F)c(F)c2)cc1F` (stereo not drawn) [I-36, N-(1,1-dioxido-2,3-dihydrothiophen-3-yl)-N-((2-(2-hydroxypropan-2-yl)pyridin-4-yl)methyl)-2-(methylthio)-2-(3,3′,4′-trifluoro-[1,1′-biphenyl]-4-yl)acetamide]: the IC50 was less than 0.5 µM.

Regarding `O=C(Cc1ccc(-n2cccc2)cc1)N(Cc1nc2ccccc2s1)C1C=CS(=O)(=O)C1` (stereo not drawn) [I-149, N-[(1,3-benzothiazol-2-yl)methyl]-N-(1,1-dioxo-2,3-dihydro-1lambda6-thiophen-3-yl)-2-[4-(1H-pyrrol-1-yl)phenyl]acetamide], the IC50 was in the range of 0.5 to 5 µM.

Consider `COc1cc(CN(C(=O)Cc2ccc(S(F)(F)(F)(F)F)cc2F)C2C=CS(=O)(=O)C2)ccn1` (stereo not drawn) [I-22, N-(1,1-dioxido-2,3-dihydrothiophen-3-yl)-2-(2-fluoro-4-(pentafluoro-λ^6-sulfaneyl)phenyl)-N-((2-methoxypyridin-4-yl)methyl)acetamide], for which the IC50 was less than 0.5 µM.

On to `Cn1cc2cc(CC(=O)N(Cc3ccncc3)C3C=CS(=O)(=O)C3)ccc2n1` (stereo not drawn) [I-656, N-(1,1-dioxo-2,3-dihydro-1lambda6-thiophen-3-yl)-2-(2-methyl-2H-indazol-5-yl)-N-[(pyridin-4-yl)methyl]acetamide], for which the IC50 is greater than 50 µM.

Consider `COC(C(=O)N(Cc1nc(C2CC2)cs1)C1C=CS(=O)(=O)C1)c1ccc(S(F)(F)(F)(F)F)cc1` (stereo not drawn) [I-74, N-[(4-cyclopropyl-1,3-thiazol-2-yl)methyl]-N-(1,1-dioxo-2,3-dihydro-1lambda6-thiophen-3-yl)-2-methoxy-2-[4-(pentafluoro-lambda6-sulfanyl)phenyl]acetamide], for which the IC50 is less than 0.5 µM.

Take `COC(C(=O)N(Cc1ccncc1)C1C=CS(=O)(=O)C1)c1ccc(-c2ccc(F)cc2)cc1` (stereo not drawn) [I-144, N-(1,1-dioxo-2,3-dihydro-1lambda6-thiophen-3-yl)-2-{4′-fluoro-[1,1′-biphenyl]-4-yl}-2-methoxy-N-[(pyridin-4-yl)methyl]acetamide]: the IC50 was in the range of 0.5 to 5 µM.

As to `O=C(Cc1cnn(-c2ccccc2)n1)N(Cc1ccncc1)C1C=CS(=O)(=O)C1` (stereo not drawn) [I-406, N-(1,1-dioxo-2,3-dihydro-1lambda6-thiophen-3-yl)-2-(2-phenyl-2H-1,2,3-triazol-4-yl)-N-[(pyridin-4-yl)methyl]acetamide], the IC50 is greater than 50 µM.

In the case of `O=C(Cc1ccc(-n2cccc2)cc1)N(Cc1cccc2cccnc12)C1C=CS(=O)(=O)C1` (stereo not drawn) [I-243, N-(1,1-dioxo-2,3-dihydro-1lambda6-thiophen-3-yl)-2-[4-(1H-pyrrol-1-yl)phenyl]-N-[(quinolin-8-yl)methyl]acetamide], the IC50 was in the range of 5 to 10 µM.

With `COc1cc(CN(C(=O)Cc2ccc(-n3cccc3C)cn2)C2C=CS(=O)(=O)C2)ccn1` (stereo not drawn) [I-250, N-(1,1-dioxo-2,3-dihydro-1lambda6-thiophen-3-yl)-N-[(2-methoxypyridin-4-yl)methyl]-2-[5-(2-methyl-1H-pyrrol-1-yl)pyridin-2-yl]acetamide], the IC50 lay in the range of 5 to 10 µM.

For the compound `CC(C)(O)c1cc(CN(C(=O)Cc2ccc(-c3ccc(F)c(F)c3)cc2F)C2C=CS(=O)(=O)C2)ccn1` (single isomer, unassigned) [I-11], the IC50 is less than 0.5 µM.

On to `O=C(Cc1ccc(-n2cccc2)cc1)N(Cc1nc(C(F)(F)F)cs1)C1C=CS(=O)(=O)C1` (stereo not drawn) [I-145, N-(1,1-dioxo-2,3-dihydro-1lambda6-thiophen-3-yl)-2-[4-(1H-pyrrol-1-yl)phenyl]-N-{[4-(trifluoromethyl)-1,3-thiazol-2-yl]methyl}acetamide], for which the IC50 is 0.5 to 5 µM.

As for `CN(C)C(=O)C(C(=O)N(Cc1ccnc(C(C)(C)O)c1)C1C=CS(=O)(=O)C1)c1ccc(-c2ccc(F)cc2)cc1` (stereo not drawn) [I-34, N-(1,1-dioxo-2,3-dihydro-1lambda6-thiophen-3-yl)-2-{4′-fluoro-[1,1′-biphenyl]-4-yl}-N-{[2-(2-hydroxypropan-2-yl)pyridin-4-yl]methyl}-N′,N′-dimethylpropanediamide], the IC50 was less than 0.5 µM.

As for `O=C(Cn1ccc(-c2ccc(F)cc2)cc1=O)N(Cc1ccncc1)C1C=CS(=O)(=O)C1` (stereo not drawn) [I-147, N-(1,1-dioxido-2,3-dihydrothiophen-3-yl)-2-(4-(4-fluorophenyl)-2-oxopyridin-1(2H)-yl)-N-(pyridin-4-ylmethyl)acetamide], the IC50 is 0.5 to 5 µM.

In the case of `O=C(CCc1cc2ccccc2[nH]1)N(Cc1ccncc1)C1C=CS(=O)(=O)C1` (stereo not drawn) [I-396, N-(1,1-dioxo-2,3-dihydro-1lambda6-thiophen-3-yl)-3-(1H-indol-2-yl)-N-[(pyridin-4-yl)methyl]propanamide], the IC50 was greater than 50 µM.

Turning to `O=C(Cc1noc2ccccc12)N(Cc1ccncc1)C1C=CS(=O)(=O)C1` (stereo not drawn) [I-516, 2-(1,2-benzoxazol-3-yl)-N-(1,1-dioxo-2,3-dihydro-1lambda6-thiophen-3-yl)-N-[(pyridin-4-yl)methyl]acetamide], the IC50 was greater than 50 µM.

As for `O=C(Cc1ccc(-n2cccc2)cc1)N(Cc1nc(C2CC2)cs1)[C@H]1C=CS(=O)(=O)C1` [I-402, N-[(4-cyclopropyl-1,3-thiazol-2-yl)methyl]-N-[(3S)-1,1-dioxo-2,3-dihydro-1lambda6-thiophen-3-yl]-2-[4-(1H-pyrrol-1-yl)phenyl]acetamide], the IC50 was greater than 50 µM.

As to `O=C(Cc1cnn(Cc2ccccc2)c1)N(Cc1ccncc1)C1C=CS(=O)(=O)C1` (stereo not drawn) [I-544, 2-(1-benzyl-1H-pyrazol-4-yl)-N-(1,1-dioxo-2,3-dihydro-1lambda6-thiophen-3-yl)-N-[(pyridin-4-yl)methyl]acetamide], the IC50 is greater than 50 µM.

`COc1cc(CN(C(=O)C2CCc3[nH]c4cc(Cl)ccc4c3C2)[C@@H]2C=CS(=O)(=O)C2)ccn1` (stereo partly drawn) [I-786, 7-chloro-N-[(3R)-1,1-dioxo-2,3-dihydro-1lambda6-thiophen-3-yl]-N-[(2-methoxypyridin-4-yl)methyl]-2,3,4,9-tetrahydro-1H-carbazole-3-carboxamide]: the IC50 was 0.5 to 5 µM.

With `CC(C)(O)c1csc(CN(C(=O)Cc2ccc(-c3ccc(F)cc3)cc2F)C2C=CS(=O)(=O)C2)n1` (stereo not drawn) [I-79, 2-(3,4′-difluoro-[1,1′-biphenyl]-4-yl)-N-(1,1-dioxido-2,3-dihydrothiophen-3-yl)-N-((4-(2-hydroxypropan-2-yl)thiazol-2-yl)methyl)acetamide], the IC50 is less than 0.5 µM.

As for `COc1cc(CN(C(=O)Cc2ccc(-c3ccc(F)c(F)c3)cc2F)C2C=CS(=O)(=O)C2)ccn1` (stereo not drawn) [I-64, N-(1,1-dioxo-2,3-dihydro-1lambda6-thiophen-3-yl)-N-[(2-methoxypyridin-4-yl)methyl]-2-{3,3′,4′-trifluoro-[1,1′-biphenyl]-4-yl}acetamide], the IC50 was less than 0.5 µM.

On to `O=C(C1CC(c2ccccc2)C1)N(Cc1ccncc1)C1C=CS(=O)(=O)C1` (stereo not drawn) [I-570, N-(1,1-dioxo-2,3-dihydro-1lambda6-thiophen-3-yl)-3-phenyl-N-[(pyridin-4-yl)methyl]cyclobutane-1-carboxamide], for which the IC50 was greater than 50 µM.

As for `O=C(C1CCCN(c2ccccc2)C1)N(Cc1ccncc1)C1C=CS(=O)(=O)C1` (stereo not drawn) [I-539, N-(1,1-dioxo-2,3-dihydro-1lambda6-thiophen-3-yl)-1-phenyl-N-[(pyridin-4-yl)methyl]piperidine-3-carboxamide], the IC50 is greater than 50 µM.

Consider `COc1ccc(CC(=O)N(Cc2ccncc2)C2C=CS(=O)(=O)C2)cc1OC(F)F` (stereo not drawn) [I-697, 2-[3-(difluoromethoxy)-4-methoxyphenyl]-N-(1,1-dioxo-2,3-dihydro-1lambda6-thiophen-3-yl)-N-[(pyridin-4-yl)methyl]acetamide], for which the IC50 was greater than 50 µM.

Regarding `COc1cc(CN(C(=O)Cn2cc(-c3ccccc3)c(C)n2)[C@@H]2C=CS(=O)(=O)C2)ccn1` [I-596, N-[(3R)-1,1-dioxo-2,3-dihydro-1lambda6-thiophen-3-yl]-N-[(2-methoxypyridin-4-yl)methyl]-2-(3-methyl-4-phenyl-1H-pyrazol-1-yl)acetamide], the IC50 was 10 to 50 µM.

Regarding `COc1cc(CN(C(=O)Cn2cc3cc(OC(F)(F)F)ccc3n2)[C@@H]2C=CS(=O)(=O)C2)ccn1` [I-720, N-[(3R)-1,1-dioxo-2,3-dihydro-1lambda6-thiophen-3-yl]-N-[(2-methoxypyridin-4-yl)methyl]-2-[5-(trifluoromethoxy)-2H-indazol-2-yl]acetamide], the IC50 lay in the range of 0.5 to 5 µM.

For `O=C(Cc1csc(C2CCCC2)n1)N(Cc1ccncc1)C1C=CS(=O)(=O)C1` (stereo not drawn) [I-445, 2-(2-cyclopentyl-1,3-thiazol-4-yl)-N-(1,1-dioxo-2,3-dihydro-1lambda6-thiophen-3-yl)-N-[(pyridin-4-yl)methyl]acetamide], the IC50 is greater than 50 µM.

Turning to `O=C(C1CCn2cc(C(F)(F)F)nc2C1)N(Cc1ccncc1)C1C=CS(=O)(=O)C1` (stereo not drawn) [I-622], the IC50 is greater than 50 µM.

Consider `O=C(Cc1ccc(-n2cccc2)cc1)N(Cc1cccc(F)c1F)C1C=CS(=O)(=O)C1` (stereo not drawn) [I-221, N-[(2,3-difluorophenyl)methyl]-N-(1,1-dioxo-2,3-dihydro-1lambda6-thiophen-3-yl)-2-[4-(1H-pyrrol-1-yl)phenyl]acetamide], for which the IC50 is 0.5 to 5 µM.

Consider `COCC(C(=O)N(Cc1ccnc(C(C)(C)O)c1)C1C=CS(=O)(=O)C1)n1cc(-c2ccccc2)cn1` (stereo not drawn) [I-324, N-(1,1-dioxo-2,3-dihydro-1lambda6-thiophen-3-yl)-N-{[2-(2-hydroxypropan-2-yl)pyridin-4-yl]methyl}-3-methoxy-2-(4-phenyl-1H-pyrazol-1-yl)propanamide], for which the IC50 is 10 to 50 µM.
